Measurements: publication PMC8171091, “Tanshinone I, a new EZH2 inhibitor restricts normal and malignant hematopoiesis through upregulation of MMP9 and ABCG2” (Theranostics, 2021)

Experiments:
EZH2 (zEZH2) = EZH2 (zEZH2) (Danio rerio, UniProt Q08BS4); test: SPR (Biacore T200), EZH2 immobilized on CM5 chip; assay type: binding
[1] = molecular target: T1, EZH2 (wild type PRC2 complex) (Homo sapiens, UniProt Q15910); test: in vitro methyltransferase assay with recombinant PRC2 and histone H3.[…], western blot readout; assay type: biochemical
T1 construct: wild type PRC2 complex (31387, Active Motif); with PRC2 complex (EED, SUZ12)
T1 sequence (Q15910 whole entry): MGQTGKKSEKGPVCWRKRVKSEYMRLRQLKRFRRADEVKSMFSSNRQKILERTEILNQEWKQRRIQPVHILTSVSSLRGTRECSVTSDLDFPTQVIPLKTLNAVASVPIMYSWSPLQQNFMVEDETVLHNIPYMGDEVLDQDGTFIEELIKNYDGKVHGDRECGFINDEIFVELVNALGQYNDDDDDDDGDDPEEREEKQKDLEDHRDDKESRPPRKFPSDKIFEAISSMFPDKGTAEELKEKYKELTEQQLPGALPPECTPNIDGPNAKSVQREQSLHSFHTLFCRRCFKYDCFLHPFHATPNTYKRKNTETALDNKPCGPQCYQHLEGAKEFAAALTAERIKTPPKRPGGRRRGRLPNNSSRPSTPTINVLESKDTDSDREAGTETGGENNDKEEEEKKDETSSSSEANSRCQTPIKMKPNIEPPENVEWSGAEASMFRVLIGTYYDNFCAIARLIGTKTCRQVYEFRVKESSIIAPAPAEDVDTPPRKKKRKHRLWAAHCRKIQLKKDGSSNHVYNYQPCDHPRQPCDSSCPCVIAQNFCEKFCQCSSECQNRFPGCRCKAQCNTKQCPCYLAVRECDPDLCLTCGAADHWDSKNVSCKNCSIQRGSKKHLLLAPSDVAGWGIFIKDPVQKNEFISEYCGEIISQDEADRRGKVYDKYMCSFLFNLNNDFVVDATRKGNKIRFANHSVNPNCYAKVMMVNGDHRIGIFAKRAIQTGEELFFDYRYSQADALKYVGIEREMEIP
T1 sequence (O75530 2-441 partner): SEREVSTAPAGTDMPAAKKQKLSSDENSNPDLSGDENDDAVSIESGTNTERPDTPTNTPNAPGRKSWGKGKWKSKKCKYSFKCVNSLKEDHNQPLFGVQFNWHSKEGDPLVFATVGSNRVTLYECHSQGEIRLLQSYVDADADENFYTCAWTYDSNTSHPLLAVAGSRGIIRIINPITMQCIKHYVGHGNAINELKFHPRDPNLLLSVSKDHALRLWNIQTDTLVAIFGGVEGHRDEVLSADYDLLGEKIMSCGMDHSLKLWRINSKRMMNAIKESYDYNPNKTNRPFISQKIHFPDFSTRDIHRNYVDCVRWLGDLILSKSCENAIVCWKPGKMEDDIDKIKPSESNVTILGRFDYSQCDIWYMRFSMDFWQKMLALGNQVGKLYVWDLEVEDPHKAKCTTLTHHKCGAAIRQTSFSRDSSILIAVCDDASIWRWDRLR
T1 sequence (Q15022 whole entry partner): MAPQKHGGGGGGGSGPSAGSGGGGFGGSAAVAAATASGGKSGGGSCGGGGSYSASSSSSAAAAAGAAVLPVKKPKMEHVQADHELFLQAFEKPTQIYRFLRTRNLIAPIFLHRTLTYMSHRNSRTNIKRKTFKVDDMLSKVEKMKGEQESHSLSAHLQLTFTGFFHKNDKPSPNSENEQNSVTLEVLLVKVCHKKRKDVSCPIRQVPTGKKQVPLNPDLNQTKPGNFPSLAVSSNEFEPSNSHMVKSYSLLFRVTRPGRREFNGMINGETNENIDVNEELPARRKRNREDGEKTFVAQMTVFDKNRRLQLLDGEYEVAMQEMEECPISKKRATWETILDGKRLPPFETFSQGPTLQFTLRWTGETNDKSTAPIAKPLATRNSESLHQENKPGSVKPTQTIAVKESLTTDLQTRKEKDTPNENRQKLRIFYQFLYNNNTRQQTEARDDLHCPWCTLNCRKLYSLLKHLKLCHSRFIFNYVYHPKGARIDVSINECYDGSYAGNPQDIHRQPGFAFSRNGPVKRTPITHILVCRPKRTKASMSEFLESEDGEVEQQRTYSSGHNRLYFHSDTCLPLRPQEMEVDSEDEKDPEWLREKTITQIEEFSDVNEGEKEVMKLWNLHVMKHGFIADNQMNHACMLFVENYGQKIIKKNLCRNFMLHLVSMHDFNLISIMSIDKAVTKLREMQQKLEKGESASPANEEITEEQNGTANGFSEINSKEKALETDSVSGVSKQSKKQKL
T1 sequence (Q09028 2-425 partner): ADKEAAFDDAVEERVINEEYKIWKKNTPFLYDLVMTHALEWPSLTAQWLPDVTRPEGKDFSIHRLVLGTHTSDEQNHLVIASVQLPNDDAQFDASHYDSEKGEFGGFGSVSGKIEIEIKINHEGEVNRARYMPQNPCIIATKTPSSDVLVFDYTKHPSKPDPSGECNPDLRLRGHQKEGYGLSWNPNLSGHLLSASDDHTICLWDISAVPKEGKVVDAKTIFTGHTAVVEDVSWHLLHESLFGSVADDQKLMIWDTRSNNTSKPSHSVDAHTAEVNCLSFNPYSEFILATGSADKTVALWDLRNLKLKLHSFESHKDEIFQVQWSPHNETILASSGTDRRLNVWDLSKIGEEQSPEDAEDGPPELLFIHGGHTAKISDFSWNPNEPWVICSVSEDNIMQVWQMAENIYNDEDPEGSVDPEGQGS
T1 sequence (Q6ZN18 2-517 partner): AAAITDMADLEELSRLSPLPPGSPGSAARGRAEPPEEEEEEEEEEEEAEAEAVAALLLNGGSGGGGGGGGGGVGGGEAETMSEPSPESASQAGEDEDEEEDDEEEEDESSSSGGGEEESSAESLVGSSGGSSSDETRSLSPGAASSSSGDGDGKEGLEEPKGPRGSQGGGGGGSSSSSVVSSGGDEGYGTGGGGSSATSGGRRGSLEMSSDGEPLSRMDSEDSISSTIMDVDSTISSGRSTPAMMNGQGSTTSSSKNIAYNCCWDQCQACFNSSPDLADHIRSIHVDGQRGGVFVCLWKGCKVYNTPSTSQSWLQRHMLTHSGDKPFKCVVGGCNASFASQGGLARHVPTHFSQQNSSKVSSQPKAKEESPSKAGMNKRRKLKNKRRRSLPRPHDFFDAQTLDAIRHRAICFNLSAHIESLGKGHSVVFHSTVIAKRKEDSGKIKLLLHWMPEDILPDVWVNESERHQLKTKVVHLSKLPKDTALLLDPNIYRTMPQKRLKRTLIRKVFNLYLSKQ

EED (hEED) = EED (hEED) (Homo sapiens, UniProt O75530); test: SPR (Biacore T200), EED immobilized on CM5 chip; assay type: binding
Sequence of EED (hEED) (O75530 2-441): as the sequence (O75530 2-441 partner) above

Sequence of EZH2 (zEZH2) (Q08BS4 whole entry): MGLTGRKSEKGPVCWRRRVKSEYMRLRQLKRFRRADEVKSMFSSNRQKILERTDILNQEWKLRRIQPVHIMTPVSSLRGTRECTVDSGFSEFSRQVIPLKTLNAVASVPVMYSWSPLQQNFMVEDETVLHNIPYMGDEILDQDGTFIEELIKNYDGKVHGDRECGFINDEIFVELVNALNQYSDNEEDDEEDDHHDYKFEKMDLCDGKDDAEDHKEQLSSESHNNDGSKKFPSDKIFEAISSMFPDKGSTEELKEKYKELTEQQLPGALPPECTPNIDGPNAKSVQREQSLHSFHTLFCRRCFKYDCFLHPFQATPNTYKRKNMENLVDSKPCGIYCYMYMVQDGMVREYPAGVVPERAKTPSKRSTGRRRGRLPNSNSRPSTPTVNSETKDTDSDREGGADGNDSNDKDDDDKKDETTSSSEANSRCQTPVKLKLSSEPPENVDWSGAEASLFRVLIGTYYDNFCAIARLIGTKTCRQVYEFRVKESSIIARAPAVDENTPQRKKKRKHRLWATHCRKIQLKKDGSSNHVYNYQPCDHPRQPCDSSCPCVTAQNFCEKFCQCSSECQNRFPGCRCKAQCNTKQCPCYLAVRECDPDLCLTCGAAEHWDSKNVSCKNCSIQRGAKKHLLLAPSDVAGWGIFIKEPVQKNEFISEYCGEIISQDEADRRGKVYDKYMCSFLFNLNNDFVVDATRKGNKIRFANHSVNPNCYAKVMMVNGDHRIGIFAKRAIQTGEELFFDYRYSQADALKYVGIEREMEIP

Cc1coc2c1C(=O)C(=O)c1c-2ccc2c(C)cccc12 [Tan I, Tanshinone I]
Kd (EZH2 (zEZH2)): 29.4 µM | in vitro methyltransferase assay with recombinant PRC2 and histone H3.3, western [1]: ~ 5 μM | Kd (EED (hEED)): 94.5 µM
